ChEMBL document CHEMBL1158876, “New acylated sulfoglycolipids and digalactolipids and related known glycolipids from cyanobacteria with a potential to inhibit the reverse transcriptase of HIV-1” (J Nat Prod, 1997)

Biological target: Gag-Pol polyprotein (Human immunodeficiency virus type 1 group M subtype B (isolate BH10)(HIV-1)) (UniProt P03366)
Experiment: Inhibition of RNA dependent DNA polymerase activity of HIV1 BH10 recombinant reverse transcriptase p66/p51 expressed in Escherichia coli at 10 uM
Details: Human immunodeficiency virus 1

Row | inhibition [%] | SMILES
1 | 8 | CCCCCCCCCCCCCCCC(=O)OC[C@H](CO[C@@H]1O[C@H](CO)[C@H](O)[C@H](O)C1O)OC(=O)CCCCCCCCCCCCCCC (single isomer, unassigned)
2 | 100 | CCCCCCCCCCCCCCCC(=O)OC[C@H](CO[C@H]1O[C@H](CS(=O)(=O)O)[C@@H](O)[C@H](O)[C@H]1O)OC(=O)CCCCCCCCCCCCCCC
3 | 100 | CCCCCCCC/C=C\CCCCCCCC(=O)OC[C@H](CO[C@H]1O[C@H](CS(=O)(=O)O)[C@@H](O)[C@H](O)[C@H]1O)OC(=O)CCCCCCCCCCCCCCC
4 | 42 | CCCCC/C=C\C/C=C\CCCCCCCC(=O)OC[C@H](CO[C@@H]1O[C@H](CO[C@H]2O[C@H](CO)[C@H](O)[C@H](OC(=O)CCCCCCCCCCCCCCC)[C@H]2O)[C@H](O)[C@H](O)[C@H]1O)OC(=O)CCCCCCCCCCCCCCC
5 | 100 | CCCCC/C=C\C/C=C\CCCCCCCC(=O)OC[C@H](CO[C@H]1O[C@H](CS(=O)(=O)O)[C@@H](O)[C@H](OC(=O)CCCCCCCCCCCCCCC)[C@H]1OC(=O)CCCCCCCCCCCCCCC)OC(=O)CCCCCCCCCCCCCCC
6 | 100 | CCCCC/C=C\C/C=C\CCCCCCCC(=O)OC[C@H](CO[C@H]1O[C@H](CS(=O)(=O)O)[C@@H](O)[C@H](O)[C@H]1O)OC(=O)CCCCCCCCCCCCCCC
7 | 65 | CCCCC/C=C\C/C=C\CCCCCCCC(=O)OC[C@H](CO[C@@H]1O[C@H](CO)[C@H](O)[C@H](O)C1O)OC(=O)CCCCCCCCCCCCCCC (single isomer, unassigned)

Row | SMILES | inhibition [%]
8 | CCCCCCCC/C=C\CCCCCCCC(=O)OC[C@H](CO[C@@H]1O[C@H](CO)[C@H](O)[C@H](O)C1O)OC(=O)CCCCCCCCCCCCCCC (single isomer, unassigned) | 33
